Reference: the supplement of paper PMC8671470

Tests used:
Settings in all cases: 72 h
[1] = test system: myeloid leukemia patient primary cells Pat.4; assay: area under dose-response curve (viability, 1 nM-10 uM) (fraction (0-1)); higher = more sensitive
Description: (§1)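 AUC (0–1, higher = more sensitive) of the 5-point dose–response (1 nM–10 µM, 72 h, CellTiter-Glo) in primary AML/CML patient mononuclear cells. 0.030103 is the floor for inactive compounds.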

[2] = test system: myeloid leukemia patient primary cells Pat.7; assay: as above
Description: as §1

[3] = test system: myeloid leukemia patient primary cells Pat.15; assay: as above
Description: as §1

[4] = test system: myeloid leukemia patient primary cells Pat.11; assay: as above
Description: as §1

[5] = test system: myeloid leukemia patient primary cells Pat.1; assay: as above
Description: as §1

[6] = test system: myeloid leukemia patient primary cells Pat.3; assay: as above
Description: as §1

[7] = test system: myeloid leukemia patient primary cells Pat.8; assay: as above
Description: as §1

[8] = test system: myeloid leukemia patient primary cells Pat.12; assay: as above
Description: as §1

[9] = test system: myeloid leukemia patient primary cells Pat.2; assay: as above
Description: as §1

[10] = test system: myeloid leukemia patient primary cells Pat.13; assay: as above
Description: as §1

[11] = test system: myeloid leukemia patient primary cells Pat.10; assay: as above
Description: as §1

[12] = test system: myeloid leukemia patient primary cells Pat.6; assay: as above
Description: as §1

[13] = test system: myeloid leukemia patient primary cells Pat.9; assay: as above
Description: as §1

[14] = test system: myeloid leukemia patient primary cells Pat.14; assay: as above
Description: as §1

[15] = test system: myeloid leukemia patient primary cells Pat.5; assay: as above
Description: as §1

ML-2 = test system: ML-2
Summary of the method: (§2)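 In 384-well plates holding acoustically pre-printed compounds at five tenfold doses from 1 to 10,000 nM, in duplicate, fifteen myeloid leukaemia cell lines were grown in RPMI 1640 for 72 h at 37 °C with 5% CO2. Luminescent ATP viability was scaled between vehicle and a positive control at 10 µM. The IC50 was then taken from log-logistic dose–response fits with four parameters.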

LAMA-84 = test system: LAMA-84
Summary of the method: as §2

K-562 = test system: K-562
Summary of the method: as §2

Mono-Mac-6 = test system: Mono-Mac-6
Summary of the method: as §2

KU-812 = test system: KU-812
Summary of the method: as §2

KG-1 = test system: KG-1
Summary of the method: as §2

THP-1 = test system: THP-1
Summary of the method: as §2

SHI-1 = test system: SHI-1
Summary of the method: as §2

BV-173 = test system: BV-173
Summary of the method: as §2

HL-60 = test system: HL-60
Summary of the method: as §2

HEL = test system: HEL
Summary of the method: as §2

MV4-11 = test system: MV4-11
Summary of the method: as §2

MOLM-13 = test system: MOLM-13
Summary of the method: as §2

NOMO-1 = test system: NOMO-1
Summary of the method: as §2

[16] = test system: myeloid leukemia patient primary cells Pat.7; assay: cell viability (% survival relative to DMSO control); higher = less cytotoxic
Summary of the method: (§3)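 Mononuclear cells from patients with AML or CML were thawed, purified on Ficoll and placed in RPMI 1640 with 10% FBS at 10,000 cells/well on 384-well plates. The plates came pre-printed with 70 compounds at five tenfold concentrations spanning 1–10,000 nM, in duplicate, and cells were exposed for 72 h. CellTiter-Glo gave viability, scaled between DMSO wells and wells with 10 μM proteasome inhibitor. Where reported, area under the curve was obtained from log-logistic fits with four parameters using the drc and PharmacoGx R packages.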

[17] = test system: myeloid leukemia patient primary cells Pat.8; assay: as above
Summary of the method: as §3

[18] = test system: myeloid leukemia patient primary cells Pat.12; assay: as above
Summary of the method: as §3

[19] = test system: myeloid leukemia patient primary cells Pat.2; assay: as above
Summary of the method: as §3

[20] = test system: myeloid leukemia patient primary cells Pat.6; assay: as above
Summary of the method: as §3

[21] = test system: myeloid leukemia patient primary cells Pat.14; assay: as above
Summary of the method: as §3

[22] = test system: myeloid leukemia patient primary cells Pat.5; assay: as above
Summary of the method: as §3

COc1cc(/C=C/C(=O)N2CCC=CC2=O)cc(OC)c1OC [Piperlongumine]
Settings	IC50 (cell viability) [µM]	area under dose-response curve
BV-173	1.62	–
HEL	3.03	–
HL-60	2.36	–
K-562	1.95	–
KG-1	3.33	–
KU-812	2.87	–
LAMA-84	3.22	–
ML-2	1.66	–
MOLM-13	1.93	–
MV4-11	0.959	–
Mono-Mac-6	2.38	–
NOMO-1	3.22	–
SHI-1	2.53	–
THP-1	2.45	–
[1]	–	0.21
[2]	–	0.0802
[3]	–	0.191
[4]	–	0.121
[5]	–	0.143
[6]	–	0.219
[7]	–	0.144
[8]	–	0.162
[9]	–	0.125
[10]	–	0.149
[11]	–	< 0.0301
[12]	–	0.116
[13]	–	0.505
[14]	–	0.244
[15]	–	0.585

cell viability [%]
Settings	[16]	[17]	[18]	[19]	[20]	[21]	[22]
1 nM	52	79.2	99.6	90.5	83.2	60.5	6.78
10 nM	> 100	89.3	88.9	98.5	96.6	98.5	82.5
100 nM	69.9	79.2	95.2	93.3	86.2	68.7	13.4
1000 nM	78.6	77.1	80.4	93.6	> 100	44.8	11.1
10000 nM	57	0.503	3.26	4.56	2.54	6.11	10.1

COC(=O)[C@]12CCC(C)(C)C[C@H]1[C@H]1C(=O)C=C3[C@@]4(C)C=C(C#N)C(=O)C(C)(C)[C@@H]4CC[C@@]3(C)[C@]1(C)CC2 [Bardoxolone methyl]
Settings	IC50 (cell viability) [µM]	area under dose-response curve
BV-173	1.22	–
HEL	2.24	–
HL-60	> 10	–
K-562	> 10	–
KG-1	1.09	–
KU-812	9.5	–
LAMA-84	> 10	–
ML-2	1.64	–
MOLM-13	> 10	–
MV4-11	> 10	–
Mono-Mac-6	0.79	–
NOMO-1	> 10	–
SHI-1	> 10	–
THP-1	7.05	–
[1]	–	0.158
[2]	–	0.705
[3]	–	0.207
[4]	–	0.111
[5]	–	0.183
[6]	–	0.618
[7]	–	0.328
[8]	–	0.0322
[9]	–	0.28
[10]	–	0.397
[11]	–	0.589
[12]	–	0.345
[13]	–	0.813
[14]	–	0.433
[15]	–	0.699

cell viability [%]
Settings	[16]	[17]	[18]	[19]	[20]	[21]	[22]
1 nM	97.6	67.7	97.3	> 100	99.8	73.4	65.9
10 nM	67.2	97.5	92.7	93.5	81.4	72.5	47.9
100 nM	2.85	78.5	77.3	78.5	75	47	5.56
1000 nM	< 0	9.52	95.8	34.7	17.6	2.03	6.86
10000 nM	< 0	61.5	52.6	77.6	72.1	25.8	7.88

O=C(C1CC1)N1CC[C@@H](C=C2NNC(=O)N2c2ccc(-c3ccc4occc4c3)cc2)C1
Settings	IC50 (cell viability) [µM]	area under dose-response curve
BV-173	> 10	–
HEL	> 10	–
HL-60	0.0437	–
K-562	> 10	–
KG-1	> 10	–
KU-812	> 10	–
LAMA-84	> 10	–
ML-2	> 10	–
MOLM-13	1.47	–
MV4-11	> 10	–
Mono-Mac-6	> 10	–
NOMO-1	> 10	–
SHI-1	> 10	–
THP-1	> 10	–
[1]	–	< 0.0301
[2]	–	< 0.0301
[3]	–	< 0.0301
[4]	–	< 0.0301
[5]	–	< 0.0301
[6]	–	< 0.0301
[7]	–	< 0.0301
[8]	–	< 0.0301
[9]	–	< 0.0301
[10]	–	< 0.0301
[11]	–	0.082
[12]	–	< 0.0301
[13]	–	0.235
[14]	–	< 0.0301
[15]	–	0.292

cell viability [%]
Settings	[16]	[17]	[18]	[19]	[20]	[21]	[22]
1 nM	> 100	85.5	95.4	> 100	98.1	92.5	73
10 nM	97.1	95.4	92.8	99	97.7	91.4	> 100
100 nM	81.9	74	> 100	> 100	> 100	96.2	72.3
1000 nM	51.6	92.2	89	95.2	89.4	77.3	35.3
10000 nM	71.6	73.2	84.1	91.7	79.5	79.5	17.1
